Assay: Example 3: phase 3 trial, enavogliflozin 0.3 mg vs dapagliflozin 10 mg once a day for 24 weeks added to metformin and gemigliptin in patients with type 2 diabetes (same endpoints, rescue drug)
Type: in vivo, human
Description: 1) when Metformin (≥1,000 mg/Day) was Administered at a Constant Dose for at Least 8 Weeks Prior to Pre-Visit (Pre-Screening) • Metformin (≥1,000 mg/day) and gemigliptin (50 mg/day) were co-administered during the 8-week stabilization period. […] 4) when Metformin (≥1,000 mg/Day) and Gemigliptin (50 mg/Day) were Co-Administered at Constant Doses for at Least 8 Weeks Prior to Pre-Visit (Prescreening) • Without a separate stabilization period, Pre-visit (pre-screening) was Visit 1 (screening).
Subjects who met the inclusion/exclusion criteria continued to receive metformin and gemigliptin while receiving a placebo of the clinical trial drug in a single-blind (subject-blinded) state for a 2-week run-in period.
Here, the randomized subjects were stratified according to the administration therapy (co-administration with two or less agents (one or two agents) or three or more agents) of a conventional hypoglycemic agent (before washout of another hypoglycemic agent) within 24 weeks prior to obtaining written informed consent and by an HbA1c value (<8% or ≥8%) at Visit 1 (screening) measured in the central laboratory.
The randomized subjects were administered two tablets of the clinical trial drug corresponding to each administration group once a day, and then visited the institution at weeks 6, 12, 18, and 24 during the 24-week administration period to conduct efficacy and safety assessments. In addition, during the clinical trial period, they were instructed to exercise regularly and control their diet without changing their daily life patterns.
• 1) Change in HbA1c at week 24 after administration of clinical trial drug compared to Visit 2 (randomization)
• 1) Change in HbA1c at each time point of weeks 6, 12, and 18 after administration of clinical trial drug compared to Visit 2 (randomization) • 2) Change in FPG at each time point of weeks 6, 12, 18, and 24 after administration of clinical trial drug compared to Visit 2 (randomization) • 3) Proportion of subjects achieving HbA1c<7% at each time point of weeks 6, 12, 18, and 24 after administration of clinical trial drug • 4) Proportion of subjects achieving HbA1c<6.5% at each time point of weeks 6, 12, 18, and 24 after administration of clinical trial drug • 5) Proportion of subjects achieving therapeutic response (HbA1c change (HbA1c at Visit 2—HbA1c at each evaluation time point)>0.5% or HbA1c<7% at each evaluation time point compared to Visit 2 (randomization)) at each time point of weeks 6, 12, 18, and 24 after administration of clinical trial drug • 6) Proportion of subjects achieving therapeutic response (HbA1c change (HbA1c at Visit 2—HbA1c at each evaluation time point)>0.7% or HbA1c<7% at each evaluation time point compared to Visit 2 (randomization)) at each time point of weeks 6, 12, 18, and 24 after administration of clinical trial drug • 7) Proportion of subjects achieving therapeutic response (HbA1c change (HbA1c at Visit 2—HbA1c at each evaluation time point)>1% or HbA1c<7% at each evaluation time point compared to Visit 2 (randomization)) at each time point of weeks 6, 12, 18, and 24 after administration of clinical trial drug

[1] = week 6, modified per-protocol set 1, enavogliflozin 0.3 mg, dapagliflozin 10 mg
[2] = week 6, modified per-protocol set 2
[3] = week 6, modified per-protocol set 2, enavogliflozin 0.3 mg, dapagliflozin 10 mg
[4] = week 6, per-protocol set, enavogliflozin 0.3 mg, dapagliflozin 10 mg

In the case of `CCOc1ccc(Cc2cc([C@@H]3O[C@H](CO)[C@@H](O)[C@H](O)[C@H]3O)ccc2Cl)cc1` [Dapagliflozin, reference compound], the “HbA1c, Mean (SD)” value (Baseline, PPS) is reported as 7.83%, the “HbA1c, Median” value (Baseline, PPS) is reported as 7.64% and the “HbA1c change from baseline, ANCOVA LS mean (SE)” value (Week 24, PPS) is reported as −0.86 % p. For the same compound, the “HbA1c change from baseline, Mean (SD)” value (Week 24, PPS) was −0.89 % p, the “HbA1c change from baseline, Median” value (Week 24, PPS) was −0.86 % p and the “HbA1c, Mean (SD)” value (Week 24, PPS) was 6.94%. The “HbA1c, Median” value (Week 24, PPS) was 6.81%, the “FPG change from baseline, LS mean (SE)” value (week 6) was −22.71(1.39) mg/dL and the “HDL-C change from baseline, LS mean (SE)” value (week 6) was 1.13(0.56) mg/dL. The “HOMA-IR change from baseline, LS mean (SE)” value (week 6) was −0.99(0.14), the “HOMA-β change from baseline, LS mean (SE)” value (week 6) was 3.20(3.04) and the “HbA1c change from baseline, LS mean (SE)” value (week 6) was −0.70(0.03) % p. The “LDL-C change from baseline, LS mean (SE)” value (week 6) was 1.91(1.78) mg/dL, the “UACR change from baseline, LS mean (SE)” value (week 6) was −14.85(3.36) g/kg and the “UGCR change from baseline, LS mean (SE)” value (week 6) was 45.75(2.14) mg/mg. For the same compound, the “adiponectin change from baseline, LS mean (SE)” value (week 6) was 0.37(0.33) μg/mL, the “body weight change from baseline, LS mean (SE)” value (week 6) was −1.80(0.16) kg and the “diastolic blood pressure change from baseline, LS mean (SE)” value (week 6) was −1.88(0.67) mmHg. The “fasting C-peptide change from baseline, LS mean (SE)” value (week 6) was −0.04(0.02) ng/mL, the “leptin change from baseline, LS mean (SE)” value (week 6) was −2.03(0.45) ng/mL and the “systolic blood pressure change from baseline, LS mean (SE)” value (week 6) was −3.49(0.87) mmHg. The “total cholesterol change from baseline, LS mean (SE)” value (week 6) was 2.63(1.93) mg/dL, the “triglyceride change from baseline, LS mean (SE)” value (week 6) was −5.39(4.38) mg/dL and the “Change from baseline in HDL-C, ANCOVA LS mean” value [1] was 1.13 mg/dL. The “Change from baseline in HDL-C, Mean” value [1] was 0.94 mg/dL, the “Change from baseline in HDL-C, Median” value [1] was 1.00 mg/dL and the “Change from baseline in LDL-C, ANCOVA LS mean” value [1] was 1.91 mg/dL. The “Change from baseline in LDL-C, Mean” value [1] was 1.40 mg/dL, the “Change from baseline in LDL-C, Median” value [1] was 1.00 mg/dL and the “Change from baseline in total cholesterol, ANCOVA LS mean” value [1] was 2.63 mg/dL. For the same compound, the “Change from baseline in total cholesterol, Mean” value [1] was 1.55 mg/dL, the “Change from baseline in total cholesterol, Median” value [1] was 2.00 mg/dL and the “Change from baseline in triglycerides, ANCOVA LS mean” value [1] was -5.39 mg/dL. The “Change from baseline in triglycerides, Mean” value [1] was -10.00 mg/dL, the “Change from baseline in triglycerides, Median” value [1] was 1.00 mg/dL and the “Fasting HDL-C, Mean” value [1] was 48.39 mg/dL. The “Fasting HDL-C, Median” value [1] was 48.00 mg/dL, the “Fasting LDL-C, Mean” value [1] was 78.50 mg/dL and the “Fasting LDL-C, Median” value [1] was 70.00 mg/dL. For the same compound, the “Fasting total cholesterol, Mean” value [1] was 145.04 mg/dL, the “Fasting triglycerides, Mean” value [1] was 121.81 mg/dL and the “Fasting triglycerides, Median” value [1] was 98.00 mg/dL. For the same compound, the “fasting Total cholesterol, Median” value [1] was 136.00 mg/dL, the “Change from baseline in diastolic blood pressure, ANCOVA LS mean” value [2] was −1.88 mmHg and the “Change from baseline in diastolic blood pressure, Mean” value [2] was −1.57 mmHg. For the same compound, the “Change from baseline in diastolic blood pressure, Median” value [2] was −2.00 mmHg, the “Diastolic blood pressure, Mean” value [2] was 72.20 mmHg and the “Diastolic blood pressure, Median” value [2] was 72.00 mmHg. The “Change from baseline in systolic blood pressure, ANCOVA LS mean” value [3] was −3.49 mmHg, the “Change from baseline in systolic blood pressure, Mean” value [3] was −3.23 mmHg and the “Change from baseline in systolic blood pressure, Median” value [3] was −3.50 mmHg. For the same compound, the “Systolic blood pressure, Mean” value [3] was 120.64 mmHg, the “Systolic blood pressure, Median” value [3] was 119.00 mmHg and the “Adiponectin, Mean” value (week 6, per-protocol set) was 6.69 µg/mL. The “Adiponectin, Median” value (week 6, per-protocol set) was 5.80 µg/mL, the “Change from baseline in HOMA-IR, ANCOVA LS mean” value (week 6, per-protocol set) was −0.99 and the “Change from baseline in HOMA-IR, Mean” value (week 6, per-protocol set) was −0.92. For the same compound, the “Change from baseline in HOMA-IR, Median” value (week 6, per-protocol set) was −0.72, the “Change from baseline in HOMA-β, ANCOVA LS mean” value (week 6, per-protocol set) was 3.20 and the “Change from baseline in HOMA-β, Mean” value (week 6, per-protocol set) was 4.48. For the same compound, the “Change from baseline in HOMA-β, Median” value (week 6, per-protocol set) was 5.30, the “Change from baseline in UACR, ANCOVA LS mean” value (week 6, per-protocol set) was -14.85 g/kg and the “Change from baseline in UACR, Mean” value (week 6, per-protocol set) was -7.25 g/kg. For the same compound, the “Change from baseline in UACR, Median” value (week 6, per-protocol set) was -0.40 g/kg, the “Change from baseline in UGCR, ANCOVA LS mean” value (week 6, per-protocol set) was 45.75 mg/mg and the “Change from baseline in UGCR, Mean” value (week 6, per-protocol set) was 43.58 mg/mg. For the same compound, the “Change from baseline in UGCR, Median” value (week 6, per-protocol set) was 42.62 mg/mg, the “Change from baseline in adiponectin, ANCOVA LS mean” value (week 6, per-protocol set) was 0.37 µg/mL and the “Change from baseline in adiponectin, Mean” value (week 6, per-protocol set) was 0.31 µg/mL. For the same compound, the “Change from baseline in adiponectin, Median” value (week 6, per-protocol set) was 0.34 µg/mL, the “Change from baseline in leptin, ANCOVA LS mean” value (week 6, per-protocol set) was -2.03 ng/mL and the “Change from baseline in leptin, Mean” value (week 6, per-protocol set) was -2.04 ng/mL. The “Change from baseline in leptin, Median” value (week 6, per-protocol set) was -1.26 ng/mL, the “HOMA-IR (insulin resistance), Mean” value (week 6, per-protocol set) was 1.90 and the “HOMA-IR (insulin resistance), Median” value (week 6, per-protocol set) was 1.66. For the same compound, the “HOMA-β (beta-cell function), Mean” value (week 6, per-protocol set) was 44.56, the “HOMA-β (beta-cell function), Median” value (week 6, per-protocol set) was 36.75 and the “Leptin, Mean” value (week 6, per-protocol set) was 8.78 ng/mL. For the same compound, the “Leptin, Median” value (week 6, per-protocol set) was 7.03 ng/mL, the “UACR, Mean” value (week 6, per-protocol set) was 23.20 g/kg and the “UACR, Median” value (week 6, per-protocol set) was 11.20 g/kg. For the same compound, the “UGCR, Mean” value (week 6, per-protocol set) was 45.12 mg/mg, the “UGCR, Median” value (week 6, per-protocol set) was 43.37 mg/mg and the “Body weight, Mean” value [4] was 65.20 kg. For the same compound, the “Change from baseline in FPG, ANCOVA LS mean” value [4] was -22.71 mg/dL, the “Change from baseline in FPG, Mean” value [4] was -22.87 mg/dL and the “Change from baseline in FPG, Median” value [4] was -18.50 mg/dL. The “Change from baseline in HbA1c, ANCOVA LS mean” value [4] was −0.70 % p, the “Change from baseline in HbA1c, Mean” value [4] was −0.72 % p and the “Change from baseline in HbA1c, Median” value [4] was −0.65 % p. For the same compound, the “Change from baseline in body weight, ANCOVA LS mean” value [4] was -1.80 kg, the “Change from baseline in body weight, Mean” value [4] was -1.68 kg and the “Change from baseline in body weight, Median” value [4] was -1.55 kg. For the same compound, the “Change from baseline in fasting C-peptide, ANCOVA LS mean” value [4] was -0.04 ng/mL, the “Change from baseline in fasting C-peptide, Mean” value [4] was -0.04 ng/mL and the “Change from baseline in fasting C-peptide, Median” value [4] was -0.03 ng/mL. For the same compound, the “FPG, Mean” value [4] was 117.64 mg/dL, the “FPG, Median” value [4] was 116.50 mg/dL and the “Fasting C-peptide, Mean” value [4] was 0.65 ng/mL. For the same compound, the “Fasting C-peptide, Median” value [4] was 0.63 ng/mL and the “HbA1c, Mean” value [4] was 7.10%.

— patent US20260130933A1, “PHARMACEUTICAL COMPOSITION FOR PREVENTION OR TREATMENT OF NEPHROPATHY AND/OR DIABETES MELLITUS, COMPRISING ENAVOGLIFLOZIN” (DAEWOONG PHARMACEUTICAL CO., LTD., priority 2022, published 2026)
